Measured values from article PMC10605077, “In Vitro and In Silico Antiviral Activity of Di-Halogenated Compounds Derived from L-Tyrosine against Human Immunodeficiency Virus 1 (HIV-1)” (Current Issues in Molecular Biology, 2023).
Entries after “also recorded” stand apart in the source; their conditions may differ. Like-named read-outs stand apart in the source and are kept apart here.

Experiments:
HIV-1 BaL (R5) = experiment: Anti-HIV activity in infected TZM-bl cells (luciferase), pre- and post-infection treatment; type: cell-based, Human Immunodeficiency Virus Type 1 (HIV-1); conditions: for anti-HIV activity against R5 strain in words: HIV-1 BaL; for inhibition at 18 µM / inhibition at 37 µM / inhibition at 75 µM / inhibition at 150 µM / inhibition at 300 µM: read-out: Percentage inhibition of HIV-1 BaL replication; for IC50: HIV-1 BaL (R5), luciferase, 48 h; for SI: selectivity index against HIV-1 BaL (CC50 and IC50 of Table 3)
Method: (§1) TZM-bl cells were plated in a flat-bottom 96-well plate (Corning Inc., Corning, New York, NY, USA) at the concentration of 1.2 × 10^5 cells/well and incubated for 24 h at 37 °C before the addition or not of each compound at non-cytotoxic concentrations (pre-infection treatment). Then, 1 h later the treatment was removed, and the infection was performed by adding 10 ng/mL of HIV-1IIIB p24 (X4) or 2 ng/mL of HIV-1 BaL (R5). After 3 h, the virus was removed and washed, and the compound dilutions were added again (post-infection treatment). Additionally, three wells were left for the negative control (cells without treatment or infection), the positive control of infection (cells infected with the virus without treatment), and the positive control of inhibition (AZT). Antiviral activity was quantified 48 h after treatment by measuring luciferase activity, which is directly proportional to the number of infectious virus particles in the sample [23]. The luciferase activity was quantified via luminescence emitted by the cells using Bright-GloTM Luciferase Assay System (Promega Corp., Madison, WI, USA), following the manufacturer’s instructions. Briefly, 100 μL of the reagent was added to 100 μL of TZM-bl cells and incubated for at least 2 min, protected from light. Relative light units (RLUs) were measured using the multi-mode plate reader (Thermo ScientificTM VarioskanTM LUX). Each experimental condition was performed in triplicate in two independent experiments (n = 6). The percentage inhibition was calculated as follows: 100 − (RLU of treated cells − RLU of uninfected cells/RLU of infection control − RLU of uninfected cells) × 100.

HIV-1IIIB (X4) = experiment: as above; type: cell-based, Human Immunodeficiency Virus Type 1 (HIV-1); conditions: for anti-HIV activity against X4 strain in words: HIV-1IIIB; for inhibition at 18 µM / inhibition at 37 µM / inhibition at 75 µM / inhibition at 150 µM: Human immunodeficiency virus 1, TZM-bl, read-out: Percentage inhibition of HIV-1IIIB (X4 strain) replication
Method: as §1

MTT cytotoxicity assay = type: cell-based; conditions: human; TZM-bl cells, MTT, 48 h
Method: The in vitro cytotoxic effect of the di-halogenated compounds on TZM-bl cells was determined with the MTT (3-(4,5-Dimethylthiazol-2-yl)-2,5-diphenyltetrazolium bromide) assay (Sigma-Aldrich, St. Louis, MO, USA). For this purpose, 1.2 × 10^5 cells/well were seeded in 96-well plates, which were incubated at 37 °C and 5% CO2 for 24 h. DMEM was used as a negative control and serial two-fold dilutions of the compounds were performed at 9.37 to 300 μM in DMEM supplemented with 5% FBS. A total of 100 μL/well of each dilution was added and incubated for 48 h. Subsequently, the cells were washed 2 times with 1X PBS, and 30 μL of MTT solution (2 mg/mL) was added and incubated for 2 h at 37 °C, in a light-protected culture. Then, 100 µL of DMSO was added to dissolve the formazan crystals, placed in shaking for 15 min, and absorbance reading was performed at 570 nm, using the Microplate Spectrophotometer (Thermo Scientific™ Multiskan™ GO, Waltham, MA, USA). Two independent experiments evaluated each experimental condition in quadruplicate (n = 8). The percentage of viability was calculated concerning the absorbance of the controls without a compound (100% viability). The 50% cytotoxic concentration was defined as the concentration of each compound that can reduce cell viability to 50% of the untreated cell control. CC50 was calculated and analyzed with GraphPad Prism version 8.0.1 (GraphPad Software, Inc., San Diego, CA, USA).

[1] = Viability assay of PBMC, flow cytometry with viability dye; type: cell-based, Human; conditions: human, PBMC stimulated with PHA and IL-2; all concentrations tested (18.75 μM up to 150 μM), 7 days; read-out: viability level on PBMCs
Method: PBMCs were thawed and let in the culture in RPMI with 10% fetal bovine serum (FBS) (Gibco, Grand Island, NY, USA) for 24 h before each experiment. Cells were stimulated for 48 h with 8 μg/mL of Phytohemagglutinin-PHA (Sigma-Aldrich, St. Louis, MO, USA) and 50 UI/mL of IL-2 (Peprotech, Rocky Hill, CT, USA). In the presence of various concentrations of di-halogenated compounds derived from L-Tyrosine, 2 × 10^5 cells per well were treated and resuspended in 200 µL of fresh medium with 20 UI/mL of IL-2 and incubated in 96-well culture plates for 7 days. After 7 days post-treatment, cell viability was determined using flow cytometry. Briefly, cells were stained with fixable viability dye eFluor 506 (eBioscience, Leicestershire, UK) as detailed in the manufacturer’s protocol for 30 min in the dark. Later, cells were washed and resuspended in PBS, and the percentage of viable cells was measured instead in the LS Fortessa cytometer (BD Biosciences, Franklin Lakes, NJ, USA). Data were analyzed using FlowJo version 10.5.3 (FlowJo, LLC, Ashland, OR, USA).

[2] = system: HIV-GFP-VSV-G reporter virus; experiment: microbe, parasite or virus in culture; type: cell-based, HIV-1
[3] = Human immunodeficiency virus 1, BAL, TZM-bl
[4] = Human immunodeficiency virus 1, BAL, TZM-bl, TZM-bl cells
[5] = Human immunodeficiency virus 1, BAL, 18 µM, TZM-bl cells
[6] = Human immunodeficiency virus 1, BAL, 37 µM, TZM-bl cells
[7] = Human immunodeficiency virus 1, BAL, 75 µM, TZM-bl cells
[8] = Human immunodeficiency virus 1, BAL, 150 µM, TZM-bl cells
[9] = Human immunodeficiency virus 1, BAL, TZM-bl cells

| SMILES | anti-HIV activity against R5 strain in words (HIV-1 BaL (R5); TZM-bl cells) | inhibition at 18 µM (HIV-1 BaL (R5); [3]) | inhibition at 37 µM (HIV-1 BaL (R5); [3]) | inhibition at 75 µM (HIV-1 BaL (R5); [3]) | inhibition at 150 µM (HIV-1 BaL (R5); [3]) | anti-HIV activity against X4 strain in words (HIV-1IIIB (X4); TZM-bl cells) | inhibition at 18 µM (HIV-1IIIB (X4)) | inhibition at 37 µM (HIV-1IIIB (X4)) | inhibition at 75 µM (HIV-1IIIB (X4)) | inhibition at 150 µM (HIV-1IIIB (X4)) | CC50 at 48 h (MTT cytotoxicity assay) | inhibition at 18 µM (HIV-1 BaL (R5); [5]) | inhibition at 37 µM (HIV-1 BaL (R5); [6]) | inhibition at 75 µM (HIV-1 BaL (R5); [7]) | inhibition at 150 µM (HIV-1 BaL (R5); [8]) | inhibition at 18 µM (HIV-1IIIB (X4); 18 µM, TZM-bl cells) | inhibition at 37 µM (HIV-1IIIB (X4); 37 µM, TZM-bl cells) | inhibition at 75 µM (HIV-1IIIB (X4); 75 µM, TZM-bl cells) | inhibition at 150 µM (HIV-1IIIB (X4); 150 µM, TZM-bl cells) | other results |
| --- | --- | --- | --- | --- | --- | --- | --- | --- | --- | --- | --- | --- | --- | --- | --- | --- | --- | --- | --- | --- |
| CN(C)CCc1cc(Br)c(O)c(Br)c1 [YDB-2M] | had no antiviral activity; also recorded: did not show significant anti-HIV activity | 26.1% | 2.7% | 7% | -45.8% | had no antiviral activity | 14.6% | -7% | 9.8% | -20.7% | – | – | – | – | – | – | – | – | – | – |
| COc1c(Cl)cc(CCN(C)C)cc1Cl [YODC-2M] | – | 24.5% | 12.2% | 26.9% | -96.2% | – | -0.3% | 2.3% | -2.2% | 2.5% | – | – | – | – | – | – | – | – | – | – |
| C[N+](C)(C)CCc1cc(Cl)c(O)c(Cl)c1 [YDC-3M] | – | – | – | – | – | – | – | – | – | – | 39.9 µM | 50.2% | 42.3% | 33.4% | 27.5% | 41% | -25.7% | 31.2% | 29.9% | viability at 7 days [1]: > 90%; IC50 (HIV-1 BaL (R5); TZM-bl cells): 37.7 µM; IC50 (HIV-1 BaL (R5); [4]): 37.2 µM; SI (HIV-1 BaL (R5)): 1.07; IC50 (HIV-1IIIB (X4); Human immunodeficiency virus 1, HIV-1IIIB (X4), TZM-bl cells, luciferase, 48 h): 22.3 µM; inhibition at 150 µM ([2]; Human immunodeficiency virus 1, TZM-bl, read-out: percentage inhibition of HIV-GFP-VSV-G replication): 12.5% |
| C[N+](C)(C)[C@@H](Cc1cc(Cl)c(O)c(Cl)c1)C(=O)O [TDC-3M] | showed antiviral activity | – | – | – | – | no antiviral activity | – | – | – | – | > 300 µM | – | 20.4% | 39.7% | 29.6% | -111% | 9.6% | 8.1% | 15.1% | inhibition at 300 µM (HIV-1 BaL (R5); [9]): 25.9% |
| COc1c(Br)cc(CC[N+](C)(C)C)cc1Br [YODB-3M] | – | – | – | – | – | – | – | – | – | – | 78.7 µM | -25.1% | -14.1% | -9% | 9.3% | -3.1% | -10.5% | 20.3% | 13.1% | – |
| COc1c(Cl)cc(CC[N+](C)(C)C)cc1Cl [YODC-3M] | – | – | – | – | – | – | – | – | – | – | – | -19.7% | -7.7% | -1% | -1.3% | 3.2% | -5.8% | -8.6% | 0.5% | – |
| C[N+](C)(C)[C@@H](Cc1cc(Br)c(O)c(Br)c1)C(=O)O [TDB-3M] | did not inhibit the replicative activity | – | – | – | – | did not inhibit the replicative activity | – | – | – | – | – | -20.5% | -9.6% | -18% | -61.9% | 2.7% | 21.6% | -15.7% | -22.4% | – |
| COc1c(Br)cc(CCN(C)C)cc1Br [YODB-2M] | – | -51.1% | -73.9% | -88.5% | -14.9% | – | -24.6% | -20% | -20.2% | -17% | – | – | – | – | – | – | – | – | – | – |
| COc1c(Br)cc(C[C@@H](C(=O)O)[N+](C)(C)C)cc1Br [TODB-3M] | showed no activity | – | – | – | – | showed no activity | – | – | – | – | – | -26% | -43.3% | -17.7% | -9.2% | 12% | -41.1% | 3.2% | -34% | – |
| COc1c(Cl)cc(C[C@@H](C(=O)O)[N+](C)(C)C)cc1Cl [TODC-3M] | – | – | – | – | – | – | – | – | – | – | 74.9 µM | – | 54.9% | 37.6% | 46.7% | -1.3% | -6.9% | 26.7% | 14.9% | viability at 7 days [1]: > 90%; inhibition at 300 µM (HIV-1 BaL (R5); [9]): 59.9%; percentage inhibition of HIV-GFP-VSV-G replication [2]: 19.5% |
| CN(C)[C@@H](Cc1cc(Cl)c(O)c(Cl)c1)C(=O)O [TDC-2M] | showed antiviral activity | – | – | – | – | no antiviral activity | – | – | – | – | ~174 µM | – | 33% | 37.9% | 32.3% | -4.8% | -15.4% | -39.5% | -72.2% | IC50 (HIV-1 BaL (R5); [4]): 141 µM; inhibition at 300 µM (HIV-1 BaL (R5); [9]): 47.3%; SI (HIV-1 BaL (R5)): ~1.24 |
| CN(C)CCc1cc(Cl)c(O)c(Cl)c1 [YDC-2M] | had no activity | -4.1% | 8.8% | 19.1% | -2.8% | had no activity | 15.1% | -22% | 22.6% | 29.1% | – | – | – | – | – | – | – | – | – | – |
| CN(C)[C@@H](Cc1cc(Br)c(O)c(Br)c1)C(=O)O [TDB-2M] | did not inhibit the replicative activity | – | – | – | – | did not inhibit the replicative activity | – | – | – | – | – | -57.9% | -45.5% | -19.2% | -51.9% | -1.3% | 15.9% | -2.9% | 2.9% | – |
